Source: US6355799B1, “Substituted benzene compounds, process for their preparation, and herbicidal and defoliant compositions containing them” (ISK Americas Incorporated, priority 1997, dated 2002)

How the values were obtained:
Assay type in all cases: in vivo
[1] = system: sicklepod (Cassia obtusifolia, CASOB); experiment: Post-emerge test, greenhouse herbicide activity screening; conditions: post-emerge; for phytotoxicity rating CASOB: 14 days after application, rating scale 0-100; for Post-emerge Herbicidal Activity CASOB: phytotoxicity rating 0-100 at 14 days after application
Excerpt: (§1) A standard greenhouse herbicide activity screening system was used to evaluate the herbicidal efficacy and crop safety of these test compounds. Seven broadleaf weed species including redroot pigweed (Amaranthus retroflexus, AMARE, velvetleaf (Abutilon theophrasti, ABUTH), sicklepod (Cassia obtusifolia, CASOB), ivyleaf morningglory (Ipomoea hederacea, IPOHE), lambsquarters (Chenopodium album, CHEAL), common ragweed (Ambrosia artemisizfolia L., AMBEL), and cocklebur (Xanthium strumarium, XANST) were used as test species. Four grass weed species including green foxtail (Setaria viridis, SETVI), barnyardgrass (Echinochloa crus-galli, ECHCG), johnsongrass (Sorghum halepense, SORHA), and large crabgrass (Digitaria sanguinalis, DIGSA) were also used. In addition, three crop species, field corn (Zea mays L., var. Dekalb 535, CORN), soybean (Glycine max L., var. Pella 86, SOY), and is upland rice (Oryza sp., var. Tebonnet, RICE) were included.
(§2) All plants were grown in 10 cm square plastic pots which were filled with a sandy loam soil mix. For pre-emerge tests, seeds were planted one day prior to application of the test compounds. For post-emerge tests, seeds were planted 8-21 days prior to the test to allow emergence and good foliage development prior to application of the test substances. At the time of the post-emerge application, plants of all species were usually at the 2-3 leaf stage of development.
(§3) All test compounds Were dissolved in acetone and applied to the test units in a volume of 187 l /ha. Test materials were applied at rates ranging from 15 g ai/ha to 1000 g ai/ha using a track sprayer equipped with a TJ8001E even flow flat fan spray nozzle. Plants were arranged on a shelf so that the top of the canopy (post-emerge) or top of the soil surface (pre-emerge) was 40-45 cm below the nozzle. Pressurized air was used to force the test solution through the nozzle as it was mechanically advanced (via electrically driven chain drive) over the top of all test plants/pots. This application simulates a typical commercial field herbicide application.
(§4) In the post-emerge test, a commercial non-ionic surfactant was also included (0.25% v/v) to enhance wetting of the leaf surfaces of target plants. Immediately after application, test units of the pre-emerge applications were watered at the soil surface to incorporate the test materials. Subsequently, these test units were bottom-watered. Post-emerge test units were always bottom-watered.
(§5) At 14 days after application of the test materials, phytotoxicity ratings were recorded. A rating scale of 0-100 was used as previously described in Research Methods in Weed Science, 2nd edition, B. Truelove, Ed., Southern Weed Science Society, Auburn University, Auburn, Ala. 1977. Briefly, “0” corresponds to no damage and “100” corresponds to complete death of all plants in the test unit. This scale was used both to determine efficacy against weed species and damage to crop species. Herbicide activity data for various compounds of this invention, which are shown by compound No. in Tables 1-8, are shown in Tables 11 and 12.

[2] = system: green foxtail (Setaria viridis, SETVI); experiment: as above; conditions: post-emerge; for phytotoxicity rating SETVI: 14 days after application, rating scale 0-100; for Post-emerge Herbicidal Activity SETVI: phytotoxicity rating 0-100 at 14 days after application
Excerpt: as §1, §2, §3, §4, §5

[3] = system: large crabgrass (Digitaria sanguinalis, DIGSA); experiment: as above; conditions: post-emerge; for phytotoxicity rating DIGSA: 14 days after application, rating scale 0-100; for Post-emerge Herbicidal Activity DIGSA: phytotoxicity rating 0-100 at 14 days after application
Excerpt: as §1, §2, §3, §4, §5

[4] = system: velvetleaf (Abutilon theophrasti, ABUTH); experiment: as above; conditions: post-emerge; for phytotoxicity rating ABUTH: 14 days after application, rating scale 0-100; for Post-emerge Herbicidal Activity ABUTH: phytotoxicity rating 0-100 at 14 days after application
Excerpt: as §1, §2, §3, §4, §5

[5] = system: barnyardgrass (Echinochloa crus-galli, ECHCG); experiment: as above; conditions: post-emerge; for phytotoxicity rating ECHCG: 14 days after application, rating scale 0-100; for Post-emerge Herbicidal Activity ECHCG: phytotoxicity rating 0-100 at 14 days after application
Excerpt: as §1, §2, §3, §4, §5

[6] = system: lambsquarters (Chenopodium album, CHEAL); experiment: as above; conditions: post-emerge; for phytotoxicity rating CHEAL: 14 days after application, rating scale 0-100; for Post-emerge Herbicidal Activity CHEAL: phytotoxicity rating 0-100 at 14 days after application
Excerpt: as §1, §2, §3, §4, §5

[7] = system: ivyleaf morningglory (Ipomoea hederacea, IPOHE); experiment: as above; conditions: post-emerge; for phytotoxicity rating IPOHE: 14 days after application, rating scale 0-100; for Post-emerge Herbicidal Activity IPOHE: phytotoxicity rating 0-100 at 14 days after application
Excerpt: as §1, §2, §3, §4, §5

[8] = system: redroot pigweed (Amaranthus retroflexus, AMARE); experiment: as above; conditions: post-emerge; for phytotoxicity rating AMARE: 14 days after application; for Post-emerge Herbicidal Activity AMARE: phytotoxicity rating 0-100 at 14 days after application
Excerpt: as §1, §2, §3, §4, §5

[9] = system: sicklepod (Cassia obtusifolia, CASOB); experiment: Pre-emerge test, greenhouse herbicide activity screening
Excerpt: as §1, §2, §3, §4, §5

[10] = system: green foxtail (Setaria viridis, SETVI); experiment: as above
Excerpt: as §1, §2, §3, §4, §5

[11] = system: large crabgrass (Digitaria sanguinalis, DIGSA); experiment: as above
Excerpt: as §1, §2, §3, §4, §5

[12] = system: velvetleaf (Abutilon theophrasti, ABUTH); experiment: as above
Excerpt: as §1, §2, §3, §4, §5

[13] = system: barnyardgrass (Echinochloa crus-galli, ECHCG); experiment: as above
Excerpt: as §1, §2, §3, §4, §5

[14] = system: lambsquarters (Chenopodium album, CHEAL); experiment: as above
Excerpt: as §1, §2, §3, §4, §5

[15] = system: ivyleaf morningglory (Ipomoea hederacea, IPOHE); experiment: as above
Excerpt: as §1, §2, §3, §4, §5

[16] = system: redroot pigweed (Amaranthus retroflexus, AMARE); experiment: as above
Method in brief: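 Plants grown in 10 cm pots of sandy loam mix received acetone-dissolved compounds through a moving flat-fan nozzle. Doses ranged from 15 to 1000 g ai/ha. Pre-emerge pots were seeded one day earlier, post-emerge pots 8–21 days earlier. Fourteen days on, each pot was graded 0–100 for damage.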

[17] = system: upland rice (Oryza sp., var. Tebonnet, RICE); experiment: Pre-emerge test, crop safety
Method in brief: (§6)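 Fourteen days after spraying, crop and weed injury was graded visually from 0, no effect, to 100, every plant dead. Test substances were dissolved in acetone and applied at 15–1000 g ai/ha with a flat-fan nozzle. Application was either pre-emergence, one day after sowing, or post-emergence at the 2–3 leaf stage.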

[18] = system: field corn (Zea mays L., var. Dekalb 535, CORN); experiment: Pre-emerge test, crop safety
Method in brief: as §6

[19] = system: upland rice (Oryza sp., var. Tebonnet, RICE); experiment: Post-emerge test, crop safety; conditions: post-emerge; for phytotoxicity rating RICE (crop damage): 14 days after application, rating scale 0-100; for Post-emerge Herbicidal Activity RICE: crop damage rating 0-100 at 14 days after application
Method in brief: (§7)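 Sandy loam pots; pre-emerge: sown 1 d pre-spray, surface-watered after, then bottom-watered. Post-emerge: sown 8–21 d before, 2–3 leaf stage, + 0.25% v/v NIS, bottom-watered. Acetone, 187 l/ha track spray, 15–1000 g ai/ha. 0–100 injury score, day 14.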

[20] = system: field corn (Zea mays L., var. Dekalb 535, CORN); experiment: Post-emerge test, crop safety; conditions: post-emerge; for phytotoxicity rating CORN (crop damage): 14 days after application, rating scale 0-100; for Post-emerge Herbicidal Activity CORN: crop damage rating 0-100 at 14 days after application
Method in brief: as §7

[21] = 63 g ai/ha, phytotoxicity rating 0-100, 14 days after application
[22] = 250 g ai/ha, phytotoxicity rating 0-100, 14 days after application
[23] = 63 g ai/ha, crop damage rating 0-100, 14 days after application
[24] = 250 g ai/ha, crop damage rating 0-100, 14 days after application
[25] = pre-emerge, rate 63 g ai/ha, phytotoxicity rating 0-100 at 14 days after application
[26] = pre-emerge, rate 250 g ai/ha, phytotoxicity rating 0-100 at 14 days after application
[27] = crop damage, pre-emerge, rate 63 g ai/ha, phytotoxicity rating 0-100 at 14 days after application
[28] = crop damage, pre-emerge, rate 250 g ai/ha, phytotoxicity rating 0-100 at 14 days after application

COc1c(Cl)cc(F)c(-n2c(=O)cc(C(F)(F)F)n(C)c2=O)c1NC(=O)OC(C)c1ccccc1 (centres unmarked) [4-47]
60: phytotoxicity rating SETVI ([2]; 250 g ai/ha) | Pre-emerge Herbicidal Activity ECHCG [13, 21] | phytotoxicity rating RICE (crop damage) ([19]; 250 g ai/ha)
10: phytotoxicity rating ABUTH ([4]; 250 g ai/ha)
95: phytotoxicity rating AMARE ([8]; 250 g ai/ha, rating scale 0-100)
70: Pre-emerge Herbicidal Activity CASOB [9, 22] | Pre-emerge Herbicidal Activity DIGSA [11, 21] | Pre-emerge Herbicidal Activity AMARE [16, 21] | Pre-emerge Herbicidal Activity RICE [17, 24]
40: phytotoxicity rating SETVI ([2]; 63 g ai/ha) | phytotoxicity rating DIGSA ([3]; 63 g ai/ha)
30: phytotoxicity rating DIGSA ([3]; 250 g ai/ha) | phytotoxicity rating ECHCG ([5]; 63 g ai/ha) | Pre-emerge Herbicidal Activity IPOHE [15, 21] | Pre-emerge Herbicidal Activity CORN [18, 23] | phytotoxicity rating RICE (crop damage) ([19]; 63 g ai/ha) | phytotoxicity rating CORN (crop damage) ([20]; 63 g ai/ha)
98: Pre-emerge Herbicidal Activity ECHCG [13, 22]
100: phytotoxicity rating CASOB ([1]; 63 g ai/ha) | phytotoxicity rating CASOB ([1]; 250 g ai/ha) | phytotoxicity rating ABUTH ([4]; 63 g ai/ha) | phytotoxicity rating CHEAL ([6]; 63 g ai/ha) | phytotoxicity rating CHEAL ([6]; 250 g ai/ha) | phytotoxicity rating IPOHE ([7]; 250 g ai/ha) | Pre-emerge Herbicidal Activity SETVI [10, 22] | Pre-emerge Herbicidal Activity DIGSA [11, 22] | Pre-emerge Herbicidal Activity ABUTH [12, 21] | Pre-emerge Herbicidal Activity ABUTH [12, 22] | Pre-emerge Herbicidal Activity CHEAL [14, 21] | Pre-emerge Herbicidal Activity CHEAL [14, 22] | Pre-emerge Herbicidal Activity IPOHE [15, 22] | Pre-emerge Herbicidal Activity AMARE [16, 22]
85: phytotoxicity rating IPOHE ([7]; 63 g ai/ha)
80: Pre-emerge Herbicidal Activity SETVI [10, 21]
90: Pre-emerge Herbicidal Activity CORN [18, 24]
20: Pre-emerge Herbicidal Activity RICE [17, 23]
0: Pre-emerge Herbicidal Activity CASOB [9, 21]
75: phytotoxicity rating AMARE ([8]; 63 g ai/ha, rating scale 0-100 (0 no damage, 100 complete death))
50: phytotoxicity rating ECHCG ([5]; 250 g ai/ha)
65: phytotoxicity rating CORN (crop damage) ([20]; 250 g ai/ha)

Cc1c(Cl)cc(F)c(-n2c(=O)cc(C(F)(F)F)n(C)c2=O)c1NC(=O)OCc1ccco1 [4-70]
80: Post-emerge Herbicidal Activity ECHCG ([5]; 250 g ai/ha) | Pre-emerge Herbicidal Activity CASOB [9, 26]
100: Post-emerge Herbicidal Activity ABUTH ([4]; 63 g ai/ha) | Post-emerge Herbicidal Activity ABUTH ([4]; 250 g ai/ha) | Post-emerge Herbicidal Activity CHEAL ([6]; 250 g ai/ha) | Post-emerge Herbicidal Activity IPOHE ([7]; 63 g ai/ha) | Post-emerge Herbicidal Activity IPOHE ([7]; 250 g ai/ha) | Post-emerge Herbicidal Activity AMARE ([8]; 250 g ai/ha) | Pre-emerge Herbicidal Activity SETVI [10, 26] | Pre-emerge Herbicidal Activity DIGSA [11, 26] | Pre-emerge Herbicidal Activity ABUTH [12, 25] | Pre-emerge Herbicidal Activity ABUTH [12, 26] | Pre-emerge Herbicidal Activity CHEAL [14, 25] | Pre-emerge Herbicidal Activity CHEAL [14, 26] | Pre-emerge Herbicidal Activity IPOHE [15, 25] | Pre-emerge Herbicidal Activity IPOHE [15, 26] | Pre-emerge Herbicidal Activity AMARE [16, 25] | Pre-emerge Herbicidal Activity AMARE [16, 26]
60: Post-emerge Herbicidal Activity CASOB ([1]; 63 g ai/ha) | Post-emerge Herbicidal Activity SETVI ([2]; 63 g ai/ha) | Pre-emerge Herbicidal Activity SETVI [10, 25] | Pre-emerge Herbicidal Activity DIGSA [11, 25]
70: Post-emerge Herbicidal Activity DIGSA ([3]; 250 g ai/ha) | Pre-emerge Herbicidal Activity RICE [17, 28] | Post-emerge Herbicidal Activity RICE ([19]; 250 g ai/ha)
50: Pre-emerge Herbicidal Activity CASOB [9, 25]
30: Post-emerge Herbicidal Activity DIGSA ([3]; 63 g ai/ha) | Post-emerge Herbicidal Activity RICE ([19]; 63 g ai/ha)
90: Post-emerge Herbicidal Activity CASOB ([1]; 250 g ai/ha) | Post-emerge Herbicidal Activity CHEAL ([6]; 63 g ai/ha) | Post-emerge Herbicidal Activity AMARE ([8]; 63 g ai/ha) | Pre-emerge Herbicidal Activity CORN [18, 27] | Post-emerge Herbicidal Activity CORN ([20]; 250 g ai/ha)
95: Post-emerge Herbicidal Activity SETVI ([2]; 250 g ai/ha) | Pre-emerge Herbicidal Activity ECHCG [13, 26] | Pre-emerge Herbicidal Activity CORN [18, 28]
40: Post-emerge Herbicidal Activity ECHCG ([5]; 63 g ai/ha) | Pre-emerge Herbicidal Activity ECHCG [13, 25] | Pre-emerge Herbicidal Activity RICE [17, 27] | Post-emerge Herbicidal Activity CORN ([20]; 63 g ai/ha)
